Earlier results as cited in patent US20220378710A1, “Therapeutic Gas Microfoam for Skin Recovery” (Truly Oxygen, Inc., priority 2018, published 2022).

Settings: topical co-administration of lipids, mammals

| Structure (SMILES) | increase in absorption and/or bioavailability |
| --- | --- |
| CCCCCc1cc(O)c2c(c1)OC(C)(C)[C@@H]1CCC(C)=C[C@@H]21 [THC, Δ^9-tetrahydrocannabinol] | more than 2.5 fold |
| C=C(C)[C@@H]1CCC(C)=C[C@H]1c1c(O)cc(CCCCC)cc1O [CBD, cannabidiol] | ~3 fold |
